According to the supplement of paper PMC10307832:

Columns and labels:
Experiment in all cases: relative viability (nuclei count vs DMSO), 5 days (fraction); higher = more cells survive
[1] = compound: CC(C)C[C@H](NC(=O)[C@H](CCc1ccccc1)NC(=O)CN1CCOCC1)C(=O)N[C@@H](Cc1ccccc1)C(=O)N[C@@H](CC(C)C)C(=O)[C@@]1(C)CO1 [Carfilzomib] + Cc1nc(Nc2ncc(C(=O)Nc3c(C)cccc3Cl)s2)cc(N2CCN(CCO)CC2)n1 [Dasatinib] (partner 0.075 µM)
Outline: (§1)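 Lung cancer cell lines in 1536-well plates got either a single drug or a fixed anchor-drug dose together with five library-drug doses (not always all listed) in √10 steps, by pin tool, on the day after seeding. Nuclei were counted after 5 days, and relative viability is the treated-to-vehicle ratio of nuclei counts. Values are medians of duplicate plates.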

[2] = compound: O=C(c1cc(Cc2n[nH]c(=O)c3ccccc23)ccc1F)N1CCN(C(=O)C2CC2)CC1 [Olaparib] + Cc1cc(Nc2cc(N3CCN(C)CC3)nc(Sc3ccc(NC(=O)C4CC4)cc3)n2)n[nH]1 [Tozasertib] (partner 0.1 µM)
Outline: as §1

[3] = compound: O=C(c1cc(Cc2n[nH]c(=O)c3ccccc23)ccc1F)N1CCN(C(=O)C2CC2)CC1 [Olaparib] + COc1cc2c(Oc3ccc(NC(=O)C4(C(=O)Nc5ccc(F)cc5)CC4)cc3F)ccnc2cc1OCCCN1CCOCC1 [Foretinib] (partner 0.25 µM)
Outline: as §1

[4] = compound: CC(C)C[C@H](NC(=O)[C@H](CCc1ccccc1)NC(=O)CN1CCOCC1)C(=O)N[C@@H](Cc1ccccc1)C(=O)N[C@@H](CC(C)C)C(=O)[C@@]1(C)CO1 [Carfilzomib] + CCNC(=O)c1noc(-c2cc(C(C)C)c(O)cc2O)c1-c1ccc(CN2CCOCC2)cc1 [Luminespib] (partner 0.01 µM)
Outline: as §1

Row | Cell Line | relative viability ([1]; first compound 0.001 µM) | relative viability ([1]; first compound 0.003162 µM) | relative viability ([1]; first compound 0.01 µM) | relative viability ([1]; first compound 0.03162 µM) | relative viability ([1]; first compound 0.1 µM) | relative viability ([2]; first compound 0.08 µM) | relative viability ([2]; first compound 0.253 µM) | relative viability ([2]; first compound 2.53 µM) | relative viability ([2]; first compound 8 µM) | relative viability ([3]; first compound 0.08 µM) | relative viability ([3]; first compound 0.253 µM) | relative viability ([3]; first compound 2.53 µM) | relative viability ([3]; first compound 8 µM) | relative viability ([4]; first compound 0.001 µM) | relative viability ([4]; first compound 0.003162 µM) | relative viability ([4]; first compound 0.01 µM) | relative viability ([4]; first compound 0.03162 µM) | relative viability ([4]; first compound 0.1 µM)
1 | HOP-62 | 0.618 | 0.655 | 0.499 | 0.0996 | 0.0979 | 0.485 | 0.317 | 0.374 | 0.287 | 1.19 | 1.13 | 0.892 | 0.774 | 0.986 | 0.91 | 0.849 | 0.784 | 0.0941
2 | IA-LM | – | – | – | – | – | – | – | – | – | 1.36 | 0.978 | 1.06 | 1.02 | – | – | – | – | –
3 | LC-2-ad | 0.475 | 0.711 | 0.796 | 0.475 | 0.256 | 0.554 | 0.429 | 0.436 | 0.437 | 1.05 | 0.816 | 1.01 | 0.889 | 0.974 | 1.19 | 1.12 | 0.593 | 0.265
4 | LCLC-97TM1 | 0.776 | 0.89 | 0.837 | 0.774 | 0.397 | 0.22 | 0.211 | 0.262 | 0.238 | 0.912 | 0.827 | 0.958 | 0.812 | 0.743 | 0.858 | 0.753 | 0.27 | 0.14
5 | LCLC-103H | 0.343 | 0.503 | 0.518 | 0.362 | 0.299 | 0.499 | 0.47 | 0.528 | 0.41 | 1.13 | 0.652 | 0.732 | 0.673 | 0.849 | 0.975 | 0.943 | 1.04 | 0.176
6 | LK-2 | 0.299 | 0.349 | 0.229 | 0.154 | 0.17 | 0.161 | 0.178 | 0.164 | 0.171 | 1.4 | 1.21 | 1.15 | 1.12 | 0.221 | 0.203 | 0.175 | 0.17 | 0.168
7 | LOU-NH91 | 0.523 | 0.618 | 0.564 | 0.273 | 0.281 | 0.729 | 0.674 | 0.637 | 0.628 | 0.943 | 0.957 | 0.998 | 0.939 | 0.344 | 0.475 | 0.344 | 0.287 | 0.289
8 | LU99A | 0.533 | 0.688 | 0.512 | 0.278 | 0.152 | 0.299 | 0.292 | 0.261 | 0.22 | 0.826 | 0.646 | 0.608 | 0.537 | 0.252 | 0.221 | 0.284 | 0.218 | 0.191
9 | LXF-289 | 0.151 | 0.312 | 0.192 | 0.0373 | 0.0553 | 0.232 | 0.146 | 0.159 | 0.156 | 1.06 | 0.91 | 1.07 | 0.983 | 0.654 | 0.761 | 0.552 | 0.515 | 0.0761
10 | NCI-H23 | 0.811 | 0.748 | 0.845 | 0.158 | 0.125 | 0.391 | 0.335 | 0.397 | 0.232 | 1.19 | 0.904 | 0.971 | 0.706 | 0.211 | 0.201 | 0.201 | 0.188 | 0.184
11 | NCI-H322M | 0.272 | 0.264 | 0.255 | 0.271 | 0.232 | 0.484 | 0.471 | 0.473 | 0.434 | 1.04 | 0.964 | 0.979 | 0.718 | 0.719 | 0.951 | 0.849 | 0.713 | 0.291
12 | NCI-H358 | 0.171 | 0.152 | 0.2 | 0.0675 | 0.0836 | 0.101 | 0.119 | 0.106 | 0.116 | 0.962 | 0.66 | 0.675 | 0.64 | 0.295 | 0.456 | 0.378 | 0.281 | 0.118
13 | NCI-H441 | 0.66 | 0.629 | 0.376 | 0.156 | 0.176 | 0.602 | 0.561 | 0.639 | 0.541 | 1.13 | 0.857 | 0.967 | 0.83 | 0.303 | 0.308 | 0.318 | 0.208 | 0.173
14 | NCI-H460 | 0.539 | 0.529 | 0.568 | 0.538 | 0.0417 | 0.485 | 0.415 | 0.356 | 0.184 | 0.925 | 0.889 | 0.914 | 0.437 | 0.0383 | 0.0252 | 0.0369 | 0.0311 | 0.0158
15 | NCI-H520 | 0.204 | 0.17 | 0.168 | 0.188 | 0.213 | 0.39 | 0.389 | 0.467 | 0.411 | 0.848 | 0.761 | 0.624 | 0.359 | 0.231 | 0.227 | 0.18 | 0.22 | 0.247
16 | NCI-H522 | 0.872 | 0.946 | 0.885 | 0.398 | 0.433 | 0.513 | 0.541 | 0.593 | 0.621 | – | – | – | – | 1.09 | 1.57 | 1.16 | 1.26 | 0.367
17 | NCI-H1299 | – | – | – | – | – | – | – | – | – | 1.13 | 1.07 | 1.11 | 1.07 | – | – | – | – | –
18 | NCI-H1563 | 0.431 | 0.463 | 0.488 | 0.505 | 0.367 | – | – | – | – | 0.962 | 0.92 | 1.02 | 0.935 | 0.538 | 0.455 | 0.512 | 0.457 | 0.466
19 | NCI-H1648 | – | – | – | – | – | – | 0.482 | – | 0.556 | – | – | – | – | – | – | – | – | –
20 | NCI-H1703 | – | – | – | – | – | – | – | – | – | 0.469 | 0.328 | 0.333 | 0.364 | – | – | – | – | –
21 | NCI-H1792 | 0.753 | 0.9 | 0.918 | 0.657 | 0.649 | – | – | – | – | – | – | – | – | 0.425 | 0.423 | 0.482 | 0.456 | 0.356
